Results reported in US8586747B2, “3,3-dimethyl tetrahydroquinoline derivatives” (Hoffmann-La Roche Inc., priority 2010, dated 2013).

Each compound was assayed on AMP-activated protein kinase (AMPK) (assay: ADP Quest assay for AMPK activators). Conditions: fold of AMPK activation to phosphorylate SAMS peptide without and with an activator at the concentration of 30 µM.
Assay type: biochemical
Set-up: key: fold AMPK activation with vs without activator at 30 µM
Protocol: ADP Quest™ Assay for AMPK Activators
This method evaluates AMP-activated protein kinase (AMPK) activity through detecting the accumulation of ADP product using an ADP Quest kit and determining the E30 values of the small molecular AMPK activators. ADP Quest kit (DiscoveRx, Fremont, Calif.) is stored at −20° C. before use. Before an experiment, thaw the kit (include assay buffer, ADP standard solution, reagent A and reagent B) and equilibrate to room temperature. Dispense the ADP Quest reagents into single-use aliquots and store at −20° C. The compound concentrations typically range from 0 µM to 100 µM by 2-fold dilution. AMP concentrations range from […] to 1 mM as the reference control. In an assay, thaw and equilibrate the assay buffer, reagent A and reagent B to room temperature for 30 minutes prior to use. Mix ATP, SAMS peptide substrate and compound, and place them into the 384-well assay plate. Add reagent A and B based on the assay kit protocol. Incubate the assay plate at room temperature for 30 minutes after addition the mixture followed by the addition of AMPK protein (Invitrogen, CA) to initiate the AMPK phosphorylation reaction. At the same time, reactions with AMPK activator AMP in the absence of enzyme is included as blank control. The reaction fluorescence signal is monitored and recorded on Envision in kinetic mode with the excitation wavelength of 530 nm and emission wavelength of 590 nm. The E30 value, defined as the fold of AMPK activation to phosphorylate SAMS peptide without and with an activator at the concentration of 30 µM, is calculated and analyzed using Prism 5.0.

First: CC1(C)Cc2cc(C(=O)O)ccc2NC1c1cccc(C(=O)NS(=O)(=O)c2ccccc2)c1 (stereo not shown) [Example 175, 3,3-Dimethyl-2-(3-(phenylsulfonylcarbamoyl)phenyl)-1,2,3,4-tetrahydroquinoline-6-carboxylic acid]
Second: CC1(C)Cc2cc(C(=O)O)ccc2NC1c1ccc(NS(=O)(=O)c2ccccc2)cc1 (stereo not shown) [Example 168, 3,3-Dimethyl-2-(4-(phenylsulfonamido)phenyl)-1,2,3,4-tetrahydroquinoline-6-carboxylic acid]
The E30 of the first is higher: 1.5 for the first, 1.39 for the second.

Compared with `CC1(C)Cc2cc(C(=O)O)ccc2NC1c1cccc(N2C(=O)OCC2Cc2ccccc2)c1` (stereo in doubt) [Example 127, 2-[3-((R)4-Benzyl-2-oxo-oxazolidin-3-yl)-phenyl]-3,3-dimethyl-1,2,3,4-tetrahydro-quinoline-6-carboxylic acid], `CN1CCN(c2cccc(C3Nc4ccc(C(=O)O)cc4CC3(C)C)c2)C(=O)C1=O` (stereo not shown) [Example 126, 3,3-Dimethyl-2-[3-(4-methyl-2,3-dioxo-piperazin-1-yl)-phenyl]-1,2,3,4-tetrahydro-quinoline-6-carboxylic acid] is higher in E30: 1.26 for the first, 1.28 for the second.

First: CC1(C)Cc2cc(C(=O)O)ccc2NC1c1cccc(NC(=O)c2cccc(F)c2)c1 (stereo not shown) [Example 6, 2-[3-(3-fluoro-benzoylamino)-phenyl]-3,3-dimethyl-1,2,3,4-tetrahydro-quinoline-6-carboxylic acid]
Second: CC(=O)Nc1cccc(C2Nc3ccc(C(=O)O)cc3CC2(C)C)c1 (stereo not shown) [Example 204, 2-(3-Acetamidophenyl)-3,3-dimethyl-1,2,3,4-tetrahydroquinoline-6-carboxylic acid]
The E30 of the first is lower: 1.31 for the first, 1.4 for the second.

First: Cc1ccc(S(=O)(=O)Nc2ccc(C3Nc4ccc(C(=O)O)cc4CC3(C)C)cc2)cc1 (stereo not shown) [Example 183, 3,3-Dimethyl-2-(4-(4-methylphenylsulfonamido)phenyl)-1,2,3,4-tetrahydroquinoline-6-carboxylic acid]
Second: CNS(=O)(=O)c1ccc(C2Nc3ccc(C(=O)O)cc3CC2(C)C)cc1 (stereo not shown) [Example 226, 3,3-Dimethyl-2-(4-(N-methylsulfamoyl)phenyl)-1,2,3,4-tetrahydroquinoline-6-carboxylic acid]
The E30 of the first is lower: 1.25 for the first, 1.32 for the second.

Compared with `COc1cc(C2Nc3ccc(C(=O)NS(=O)(=O)C4CC4)cc3CC2(C)C)cc(N2CCOCC2)c1` (stereo not shown) [Example 67, Cyclopropanesulfonic acid [2-(3-methoxy-5-morpholin-4-yl-phenyl)-3,3-dimethyl-1,2,3,4-tetrahydro-quinoline-6-carbonyl]-amide], `CC1(C)Cc2cc(C(=O)NS(=O)(=O)C3CC3)ccc2NC1c1cc(N2CCOCC2)ccc1F` (stereo not shown) [Example 54, Cyclopropanesulfonic acid [2-(2-fluoro-5-morpholin-4-yl-phenyl)-3,3-dimethyl-1,2,3,4-tetrahydro-quinoline-6-carbonyl]-amide] is lower in E30: 1.38 for the first, 1.28 for the second.

Going from `CC1(C)Cc2cc(C(=O)NS(C)(=O)=O)ccc2NC1c1cccc(N2CCNCC2)c1` (stereo not shown) [Example 103, N-[3,3-Dimethyl-2-(3-piperazin-1-yl-phenyl)-1,2,3,4-tetrahydro-quinoline-6-carbonyl]-methanesulfonamide] to `CN1CCN(c2cccc(C3Nc4ccc(C(=O)NS(C)(=O)=O)cc4CC3(C)C)c2)CC1` (stereo not shown) [Example 96, N-{3,3-Dimethyl-2-[3-(4-methyl-piperazin-1-yl)-phenyl]-1,2,3,4-tetrahydro-quinoline-6-carbonyl}-methanesulfonamide], the E30 rises from 1.37 to 1.5.

First: CNC(=O)C(C)(C)Nc1cccc(C2Nc3ccc(C(=O)NS(=O)(=O)C4CC4)cc3CC2(C)C)c1 (stereo not shown) [Example 47, 2-[3-(6-Cyclopropanesulfonylaminocarbonyl-3,3-dimethyl-1,2,3,4-tetrahydro-quinolin-2-yl)-phenylamino]-2,N-dimethyl-propionamide]
Second: CC(C)[C@@H]1COC(=O)N1c1cccc(C2Nc3ccc(C(=O)NS(=O)(=O)C4CC4)cc3CC2(C)C)c1 (stereo partly drawn) [Example 125, Cyclopropanesulfonic acid {2-[3-((R)-4-isopropyl-2-oxo-oxazolidin-3-yl)-phenyl]-3,3-dimethyl-1,2,3,4-tetrahydro-quinoline-6-carbonyl}-amide]
The E30 of the first is lower: 1.23 for the first, 1.33 for the second.

Going from `CC1(C)Cc2cc(C(=O)O)ccc2NC1c1ccc(NC(=O)C2=CCCCC2)cc1` (stereo not shown) [Example 217, 2-(4-(Cyclohex-1-enecarboxamido)phenyl)-3,3-dimethyl-1,2,3,4-tetrahydroquinoline-6-carboxylic acid] to `CC1(C)Cc2cc(C(=O)O)ccc2NC1c1ccc(N2CCOCC2)cc1` (stereo not shown) [Example 72, 3,3-Dimethyl-2-(4-morpholin-4-yl-phenyl)-1,2,3,4-tetrahydro-quinoline-6-carboxylic acid], the E30 falls from 1.27 to 1.21.

Compared with `CC(C)(C)c1ccc(-c2cccc(C3Nc4ccc(C(=O)NS(C)(=O)=O)cc4CC3(C)C)c2)cc1` (stereo not shown) [Example 83, N-[2-(4′-tert-Butyl-biphenyl-3-yl)-3,3-dimethyl-1,2,3,4-tetrahydro-quinoline-6-carbonyl]-methanesulfonamide], `CC(C)Oc1ccc(-c2cccc(C3Nc4ccc(C(=O)NS(C)(=O)=O)cc4CC3(C)C)c2)cc1` (stereo not shown) [Example 85, N-[2-(4′-Isopropoxy-biphenyl-3-yl)-3,3-dimethyl-1,2,3,4-tetrahydro-quinoline-6-carbonyl]-methanesulfonamide] is lower in E30: 1.35 for the first, 1.29 for the second.

First: CC1(C)Cc2cc(C(=O)O)ccc2NC1c1ccc(F)c(Cl)c1 (stereo not shown) [Example 113, 2-(3-Chloro-4-fluoro-phenyl)-3,3-dimethyl-1,2,3,4-tetrahydro-quinoline-6-carboxylic acid]
Second: CC(C)C(=O)Nc1cc(C2Nc3ccc(C(=O)O)cc3CC2(C)C)ccc1Cl (stereo not shown) [Example 177, 2-(4-Chloro-3-isobutyramidophenyl)-3,3-dimethyl-1,2,3,4-tetrahydroquinoline-6-carboxylic acid]
The E30 of the first is lower: 1.21 for the first, 1.4 for the second.

Compared with `CNC(=O)c1cccc(C2Nc3ccc(C(=O)O)cc3CC2(C)C)c1` (stereo not shown) [Example 187, 3,3-Dimethyl-2-(3-(methylcarbamoyl)phenyl)-1,2,3,4-tetrahydroquinoline-6-carboxylic acid], `CC1(C)Cc2cc(C(=O)O)ccc2NC1c1cccnc1` (stereo not shown) [Example 108, 3,3-Dimethyl-2-pyridin-3-yl-1,2,3,4-tetrahydro-quinoline-6-carboxylic Acid] is lower in E30: 1.38 for the first, 1.29 for the second.

First: CC(C)(C)NC(=O)c1ccc(-c2cccc(C3Nc4ccc(C(=O)O)cc4CC3(C)C)c2)cc1 (stereo not shown) [Example 162, 2-(4′-tert-Butylcarbamoyl-biphenyl-3-yl)-3,3-dimethyl-1,2,3,4-tetrahydro-quinoline-6-carboxylic acid]
Second: Cc1ccc(N2CCN(c3cccc(C4Nc5ccc(C(=O)NS(C)(=O)=O)cc5CC4(C)C)c3)CC2)c(C)c1 (stereo not shown) [Example 90, N-(2-{3-[4-(2,4-Dimethyl-phenyl)-piperazin-1-yl]-phenyl}-3,3-dimethyl-1,2,3,4-tetrahydro-quinoline-6-carbonyl)-methanesulfonamide]
The E30 of the first is lower: 1.2 for the first, 1.44 for the second.

Compared with `CC1(C)Cc2cc(C(=O)O)ccc2NC1c1ccccc1NC(=O)C1CCC1` (stereo not shown) [Example 216, 2-(2-(Cyclobutanecarboxamido)phenyl)-3,3-dimethyl-1,2,3,4-tetrahydroquinoline-6-carboxylic acid], `CC1(C)Cc2cc(C(=O)O)ccc2NC1c1ccccc1NS(C)(=O)=O` (stereo not shown) [Example 223, 3,3-Dimethyl-2-(2-(methylsulfonamido)phenyl)-1,2,3,4-tetrahydroquinoline-6-carboxylic acid] is higher in E30: 1.36 for the first, 1.94 for the second.

Compared with `CC1(C)Cc2cc(Cl)cc(C(=O)NS(=O)(=O)C3CC3)c2NC1c1cccc(NC(=O)c2cnccn2)c1` (stereo not shown) [Example 2, Pyrazine-2-carboxylic acid [3-(6-chloro-8-cyclopropanesulfonylaminocarbonyl-3,3-dimethyl-1,2,3,4-tetrahydro-quinolin-2-yl)-phenyl]-amide], `CC1(C)Cc2cc(Cl)cc(C(=O)NS(C)(=O)=O)c2NC1c1cccc(N2CCN(c3ccc(Cl)cc3)CC2)c1` (stereo not shown) [Example 93, N-(6-Chloro-2-{3-[4-(4-chloro-phenyl)-piperazin-1-yl]-phenyl}-3,3-dimethyl-1,2,3,4-tetrahydro-quinoline-8-carbonyl)-methanesulfonamide] is lower in E30: 1.42 for the first, 1.32 for the second.

First: CC1(C)Cc2ccc(C(=O)O)c(F)c2NC1c1cccc(N2CCOCC2)c1 (stereo not shown) [Example 137, 8-Fluoro-3,3-dimethyl-2-(3-morpholin-4-yl-phenyl)-1,2,3,4-tetrahydro-quinoline-7-carboxylic acid]
Second: CC1(C)Cc2c(ccc(Cl)c2C(=O)O)NC1c1cccc(N2CCOCC2)c1 (stereo not shown) [Example 95, 6-Chloro-3,3-dimethyl-2-(3-morpholin-4-yl-phenyl)-1,2,3,4-tetrahydro-quinoline-5-carboxylic acid]
The E30 of the first is lower: 1.26 for the first, 1.56 for the second.

`Cc1ccc(F)cc1C1Nc2ccc(C(=O)NS(=O)(=O)C3CC3)cc2CC1(C)C` (stereo not shown) [Example 60, Cyclopropanesulfonic acid [2-(5-fluoro-2-methyl-phenyl)-3,3-dimethyl-1,2,3,4-tetrahydro-quinoline-6-carbonyl]-amide] gave an E30 of 1.2.
